Each structure is given as a SMILES string.

The values that follow come from US20260274810A1, “NOVEL MITOFUSIN INHIBITORS” (ALBERT EINSTEIN COLLEGE OF MEDICINE, priority 2023, published 2026).

The test system of experiment [1] is MEFs. As to the kind of experiment: Cytochrome C release. The experiment is classed as cell-based, mouse. As to conditions: 6 hrs; mitofusin dependent. The method, then:
Cytochrome C release. MEFs were seeded in a […] and grown at ~70% confluence. Following 6 hrs treatment with MFI8, cells were harvested and lysed in digitonin buffer [20 mM Hepes, pH 7.2, 10 mM KCl, 5 mM MgCl2, 1 m MEDTA, 1 mM EGTA, 250 mM sucrose, 0.025% Digitonin (from 5% w/v stock) and complete protease inhibitors (Roche Applied Science)] on ice for 10 min. Then, supernatants were isolated by centrifugation at 15,000×g for 10 min. Mitochondrial pellets solubilized in 1% Triton X-100/PBS for 1 hr at 4° C. Solubilized Pellets were subjected to a 14,000×rpm spin for 10 min. Samples were prepared for western blot analysis and separated by 4-12% NuPage (Life Technologies).

The subject of experiment [2] is MEFs. As to the kind of experiment: Mitochondrial aspect ratio (Mito AR), live cell imaging.
Protocol: Live cell imaging. MEFs were seeded on chamber slides (MatTek Corporation: 35 mm dishes, No. 1.5, 14 mm glass diameter) at ~70% confluence. […] Images were taken with Leica SP5 inverted confocal microscope. Data were analyzed with Image J software. >200 mitochondria were measured per condition in mitochondrial aspect ratio.
Measurement of mitochondrial aspect ratio (Mito AR). Images that depict stained mitochondria with mitotracker green were analyzed using FIJI We measured for each mitochondrion its length and width. Then, we divided the length by the width for each mitochondrion to get its mitochondrial aspect ratio. >200 mitochondria were measured per treatment.
MEFs were seeded on chamber slides (MatTek Corporation: 35 mm dishes, No. 1.5, 14 mm glass diameter) at ~70% confluence. Cells were treated with compounds. Then, cells were stained with MitoTracker Green (200 nM, Invitrogen) for 20 min at 37° C. After treatments, media was replaced with FluoroBrite™ DMEM (Invitrogen) supplemented with 10% FBS, 100 U ml^−1 penicillin/streptomycin, 2 mM L-glutamine and compound prior image acquisition. Images were taken with Leica SP5 inverted confocal microscope. Data were analyzed with Image J software. >200 mitochondria were measured per condition in mitochondrial aspect ratio. Measurement of mitochondrial aspect ratio (Mito AR). Images that depict stained mitochondria with mitotracker green were analyzed using FIJI software. Each mitochondrion was measured for its length and width. Then, the length was divided by the width for each mitochondrion to get its mitochondrial aspect ratio. >200 mitochondria were measured per treatment.

`Cc1cccc(NC(C)c2cc(Cl)ccc2O)c1C` (stereo not drawn) [MFI8]: in experiment [1], the “cytochrome c release to the cytosol” value was “cytochrome c was released to the cytosol, albeit at modest levels”. Further, the mitochondrial aspect ratio result is “significantly decreased mitochondrial aspect ratio” in experiment [2] (MFN1/MFN2 DKO MEFs reconstituted with WT MFN2); “reduced mitochondrial aspect ratio” in experiment [2] (co-treated with MASM7 in MEFs); “completely abolished MFI8 from reducing mitochondrial aspect ratio” in experiment [2] (double knockout of MFN1 and MFN2); “still capable of reducing mitochondrial aspect ratio” in experiment [2] (either MFN1 or MFN2 knocked out). In addition, in experiment [2] (Mus musculus, 6 h, read-out: IC50 (decrease of Mito AR)), the IC50 – broadly, the concentration that gives 50% inhibition – was found to be 4.06 µM.
